Here are results for 21 molecules from patent US20230061736A1, “GPR119 AGONISTS” (Kallyope, Inc., priority 2019, published 2023).

Where a name gives a salt, the structure may show the parent alone.

The target of this experiment is T1, human GPR119 (hGPR119) (Homo sapiens, UniProt Q8TDV5).
T1 construct: expressed in transfected cells
T1 sequence (Q8TDV5 1-335): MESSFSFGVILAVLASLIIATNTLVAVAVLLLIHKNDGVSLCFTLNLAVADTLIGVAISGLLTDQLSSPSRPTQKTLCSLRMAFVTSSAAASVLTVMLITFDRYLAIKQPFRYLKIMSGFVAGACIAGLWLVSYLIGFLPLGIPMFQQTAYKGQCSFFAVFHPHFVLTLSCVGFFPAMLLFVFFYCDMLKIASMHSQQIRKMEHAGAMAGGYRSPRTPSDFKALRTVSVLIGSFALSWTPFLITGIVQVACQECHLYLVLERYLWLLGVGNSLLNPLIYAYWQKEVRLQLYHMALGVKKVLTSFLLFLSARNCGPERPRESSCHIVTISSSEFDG
Put plainly: cAMP accumulation assay (cAMP Gs dynamic HTRF kit). In kind it is cell-based. To be noted: CHO-K1 cells stably expressing hGPR119, 4-parameter fit; for Emax: 1 h, % activity normalized to Max/Min controls; for EC50: cAMP accumulation. The essentials: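 Read-out is HTRF 665/620 nm ratio after 1 h detection at ambient temperature, converted to % activity against positive and negative controls, EC50 and Max activity by 4-parameter fit. Compounds were titrated onto ~10,000 thawed hGPR119-CHO-K1 cells/well for 60 min at 37° C/5% CO2.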
For orientation: Cyclic AMP is a second messenger, typically raised through Gs and lowered through Gi signalling.

By Emax is commonly meant the size of the effect at its maximum, as opposed to the concentration needed. Usually EC50 stands for the concentration at which the effect is half-maximal. The low end stands for higher potency in that assay, the high end for lower potency in that assay. Regarding `COCc1cnc(N2CCC(CCCOc3ccc(CC(=O)N4CC(CNCC[C@@H](O)C[C@@H](O)CC(=O)O)C4)c(F)c3)CC2)nc1` [Example 82, (3R,5R)-7-[[1-[2-[2-fluoro-4-[3-[1-[5-(methoxymethyl)pyrimidin-2-yl]-4-piperidyl]propoxy]phenyl]acetyl]azetidin-3-yl]methylamino]-3,5-dihydroxy-heptanoicacid], the Emax lay in the range of 50 to 100% and the EC50 fell in the range of 100 to 1000 nM.

Molecule `CCCc1cnc(N2CCC(CCCOc3cc(F)c(CC(=O)N4CC(CNC(CO)(CO)CO)C4)c(F)c3)CC2)nc1` [Example 76, 2-(2,6-difluoro-4-(3-(1-(5-propylpyrimidin-2-yl)piperidin-4-yl)propoxy)phenyl)-1-(3-(((1,3-dihydroxy-2-(hydroxymethyl)propan-2-yl)amino)methyl)azetidin-1-yl)ethan-1-one] showed an Emax of at least 130% and an EC50 of at most 100 nM.

In turn, `CC1(CCCCOc2ccc(CC(=O)N3CC(CNC[C@H](O)[C@@H](O)[C@H](O)[C@H](O)CO)C3)c(F)c2)CCN(c2ncc(Cl)cn2)CC1` [Example 109, 2-[4-[4-[1-(5-chloropyrimidin-2-yl)-4-methyl-4-piperidyl]butoxy]-2-fluoro-phenyl]-1-[3-[[[(2S,3R,4R,5R)-2,3,4,5,6-pentahydroxyhexyl]amino]methyl]azetidin-1-yl]ethanone] gave an Emax of 100 to 130% and an EC50 of 100 to 1000 nM.

`O=C(Cc1ccc(OCCC2CC3(CCN(c4ncc(Cl)cn4)CC3)C2)cc1F)N1CC(CNC[C@H](O)[C@@H](O)[C@H](O)[C@H](O)CO)C1` [Example 104, 2-[4-[2-[7-(5-chloropyrimidin-2-yl)-7-azaspiro[3.5]nonan-2-yl]ethoxy]-2-fluoro-phenyl]-1-[3-[[[(2S,3R,4R,5R)-2,3,4,5,6-pentahydroxyhexyl]amino]methyl]azetidin-1-yl]ethanone]: the Emax lay in the range of 100 to 130% and the EC50 lay within 100 to 1000 nM.

In turn, `CCc1cnc(N2CCC(CCOCc3ccc(CC(=O)N4CC(CNC[C@@H](O)[C@H](O)[C@@H](O)[C@@H](O)CO)C4)c(F)c3)CC2)nc1` [Example 88] had an Emax of 50 to 100% and an EC50 of 1000 to 10000 nM.

`CCCc1cnc(N2CCC(CCCOc3ccc(CC(=O)N4CC(CNCC(O)(CO)CO)C4)c(F)c3)CC2)nc1` [Example 71, 1-(3-(((2,3-dihydroxy-2-(hydroxymethyl)propyl)amino)methyl)azetidin-1-yl)-2-(2-fluoro-4-(3-(1-(5-propylpyrimidin-2-yl)piperidin-4-yl)propoxy)phenyl)ethan-1-one] returned an Emax of 100 to 130% and an EC50 of at most 100 nM.

Consider `O=C(Cc1ccc(OCCCC2CCN(c3ncc(Cl)cn3)CC2)cc1F)N1CCC(O)(C(=O)NCC(CO)(CO)CO)C1` (centres unmarked) [Example 182, 1-[2-[4-[3-[1-(5-chloropyrimidin-2-yl)-4-piperidyl]propoxy]-2-fluoro-phenyl]acetyl]-3-hydroxy-N-[3-hydroxy-2,2-bis (hydroxymethyl)propyl]pyrrolidine-3-carboxamide], for which the Emax was 100 to 130% and the EC50 is at most 100 nM.

Take `CC(C)OC(=O)N1CCC2(CC1)CC(CCCOc1ccc(CC(=O)N3CC(CNC[C@H](O)[C@@H](O)[C@H](O)[C@H](O)CO)C3)c(F)c1)C2` [Example 117, isopropyl 2-[3-[3-fluoro-4-[2-oxo-2-[3-[[[(2S,3R,4R,5R)-2,3,4,5,6-pentahydroxyhexyl]amino]methyl]azetidin-1-yl]ethyl]phenoxy]propyl]-7-azaspiro[3.5]nonane-7-carboxylate]: the Emax lay within 100 to 130% and the EC50 was 100 to 1000 nM.

The molecule `O=C(CC1CN(C(=O)Cc2ccc(OCCCC3CCN(c4ncc(Cl)cn4)CC3)cc2F)C1)NC(CO)(CO)CO` [Example 32, 2-[1-[2-[4-[3-[1-(5-chloropyrimidin-2-yl)-4-piperidyl]propoxy]-2-fluoro-phenyl]acetyl]azetidin-3-yl]-N-[2-hydroxy-1,1-bis(hydroxymethyl)ethyl]acetamide] showed an Emax of 100 to 130% and an EC50 of 100 to 1000 nM.

As for `CCCc1cnc(N2CCC(CCCOc3cc(F)c(CC(=O)N4CC(C(=O)NCCC[N+](C)(C)C)C4)c(F)c3)CC2)nc1` [Example 40, 3-[[1-[2-[2,6-difluoro-4-[3-[1-(5-propylpyrimidin-2-yl)-4-piperidyl]propoxy]phenyl]acetyl]azetidine-3-carbonyl]amino]propyl-trimethyl-ammonium formate], the Emax fell in the range of 100 to 130%.

Molecule `O=C(Cc1ccc(OCCCC2CCC23CCN(c2ncc(Cl)cn2)CC3)cc1F)N1CC(CNC[C@H](O)[C@@H](O)[C@H](O)[C@H](O)CO)C1` (stereo partly drawn) [Example 144, 2-[4-[3-[7-(5-chloropyrimidin-2-yl)-7-azaspiro[3.5]nonan-3-yl]propoxy]-2-fluoro-phenyl]-1-[3-[[[(2S,3R,4R,5R)-2,3,4,5,6-pentahydroxyhexyl]amino]methyl]azetidin-1-yl]ethanone] gave an Emax of 100 to 130% and an EC50 of 1000 to 10000 nM.

Turning to `COCc1cnc(N2CCC(CCCOc3ccc(CC(=O)N4CC(C(=O)NCCNC(=O)NC(CO)(CO)CO)C4)c(F)c3)CC2)nc1` [Example 27, 1-[2-[2-fluoro-4-[3-[1-[5-(methoxymethyl)pyrimidin-2-yl]-4-piperidyl]propoxy]phenyl]acetyl]-N-[2-[[2-hydroxy-1,1-bis (hydroxymethyl)ethyl]carbamoylamino]ethyl]azetidine-3-carboxamide], the maximum response (Emax) is 100 to 130% and the EC50 is 100 to 1000 nM.

As to `CC(C)OC(=O)N1CCC2(CCC2CCOc2ccc(CC(=O)N3CC(CNC[C@H](O)[C@@H](O)[C@H](O)[C@H](O)CO)C3)c(F)c2)CC1` (stereo partly drawn) [Example 140, isopropyl 3-[2-[3-fluoro-4-[2-oxo-2-[3-[[[(2S,3R,4R,5R)-2,3,4,5,6-pentahydroxyhexyl]amino]methyl]azetidin-1-yl]ethyl]phenoxy]ethyl]-7-azaspiro[3.5]nonane-7-carboxylate], the Emax is under 50% and the half-maximal effective concentration (EC50) was over 10000 nM.

In turn, `O=C(Cc1ccc(OCCCC2CCN(c3ncc(Cl)cn3)CC2)cc1F)NCCCCS(=O)(=O)O` [Example 12, 4-[[2-[4-[3-[1-(5-chloropyrimidin-2-yl)-4-piperidyl]propoxy]-2-fluoro-phenyl]acetyl]amino]butane-1-sulfonic acid] had a maximal response (Emax) of at least 130% and an EC50 of 1000 to 10000 nM.

As for `O=C(Cc1ccc(OCCCC2CCN(c3ncc(Cl)cn3)CC2)cc1F)NCCCS(=O)(=O)O` [Example 11, 3-[[2-[4-[3-[1-(5-chloropyrimidin-2-yl)-4-piperidyl]propoxy]-2-fluoro-phenyl]acetyl]amino]propane-1-sulfonic acid], the Emax was at least 130% and the EC50 lay in the range of 1000 to 10000 nM.

`O=C(Cc1c(F)cc(OCCCC2CCN(c3ncc(Cl)cn3)CC2)cc1F)N1CCC(O)(CNCC(CO)(CO)CO)C1` (centres unmarked) [Example 188, 2-[4-[3-[1-(5-chloropyrimidin-2-yl)-4-piperidyl]propoxy]-2,6-difluoro-phenyl]-1-[3-hydroxy-3-[[[3-hydroxy-2,2-bis(hydroxymethyl)propyl]amino]methyl]pyrrolidin-1-yl]ethanone] showed a maximum response (Emax) of 100 to 130% and an EC50 of at most 100 nM.

`NCCOCCOCCNCC1CN(C(=O)Cc2ccc(OCCCC3CCN(c4ncc(Cl)cn4)CC3)cc2F)C1` [Example 52, 1-[3-[[2-[2-(2-aminoethoxy)ethoxy]ethylamino]methyl]azetidin-1-yl]-2-[4-[3-[1-(5-chloropyrimidin-2-yl)-4-piperidyl]propoxy]-2-fluoro-phenyl]ethanone]: the Emax fell in the range of 100 to 130% and the EC50 was 100 to 1000 nM.

The molecule `O=C(Cc1ccc(OCCCC2CCN(c3ncc(Cl)cn3)CC2)cc1F)N1CC(CN2C[C@@H](O)[C@H](O)C2)C1` (stereo in doubt) [Example 47, 2-[4-[3-[1-(5-chloropyrimidin-2-yl)-4-piperidyl]propoxy]-2-fluoro-phenyl]-1-[3-[[rac-(3R,4R)-3,4-dihydroxypyrrolidin-1-yl]methyl]azetidin-1-yl]ethanone] displayed an Emax of 100 to 130% and an EC50 of at most 100 nM.

The molecule `O=C(NCC(O)(CO)CO)C1CN(C(=O)Cc2ccc(OCCCC3CCN(c4ncc(Cl)cn4)CC3)cc2F)C1` [Example 30, 1-[2-[4-[3-[1-(5-chloropyrimidin-2-yl)-4-piperidyl]propoxy]-2-fluoro-phenyl]acetyl]-N-[2,3-dihydroxy-2-(hydroxymethyl)propyl]azetidine-3-carboxamide] returned an Emax of 100 to 130% and an EC50 of at most 100 nM.

The molecule `CCOc1cnc(N2CCC(CCCOc3cc(F)c(CC(=O)N4CC(CNC[C@H](O)[C@@H](O)[C@H](O)[C@H](O)CO)C4)c(F)c3)CC2)nc1` [Example 114, 2-[4-[3-[1-(5-ethoxypyrimidin-2-yl)-4-piperidyl]propoxy]-2,6-difluoro-phenyl]-1-[3-[[[(2S,3R,4R,5R)-2,3,4,5,6-pentahydroxyhexyl]amino]methyl]azetidin-1-yl]ethanone] returned an Emax of 100 to 130% and a 50% effective concentration (EC50) of at most 100 nM.

Molecule `O=C(Cc1ccc(OCCCC2CCN(c3ncc(Cl)cn3)CC2)cc1F)N1CC(CNCCOCCOCCO)C1` [Example 51, 2-[4-[3-[1-(5-chloropyrimidin-2-yl)-4-piperidyl]propoxy]-2-fluoro-phenyl]-1-[3-[[2-[2-(2-hydroxyethoxy)ethoxy]ethylamino]methyl]azetidin-1-yl]ethanone] showed an Emax of 50 to 100% and an EC50 of at most 100 nM.
